“And” between values parts separate entries of the source, which are not always exact repeats. Equal entries are not always repeated. “Also recorded” adds a separate entry of the source. Where two headings read alike, the source gives them in different places.
Columns and labels:
MT1 [1] = target: T1, MT1 (Homo sapiens, UniProt P48039); assay: [3H]melatonin competition radioligand binding, MT1 membranes; conditions: read-out: MT1 pKi ± SEM (converted)
T1 construct: expressed in transfected cells; host or cells: HEK293T (ATCC CRL-11268), transient transfection
T1 sequence (P48039 whole entry): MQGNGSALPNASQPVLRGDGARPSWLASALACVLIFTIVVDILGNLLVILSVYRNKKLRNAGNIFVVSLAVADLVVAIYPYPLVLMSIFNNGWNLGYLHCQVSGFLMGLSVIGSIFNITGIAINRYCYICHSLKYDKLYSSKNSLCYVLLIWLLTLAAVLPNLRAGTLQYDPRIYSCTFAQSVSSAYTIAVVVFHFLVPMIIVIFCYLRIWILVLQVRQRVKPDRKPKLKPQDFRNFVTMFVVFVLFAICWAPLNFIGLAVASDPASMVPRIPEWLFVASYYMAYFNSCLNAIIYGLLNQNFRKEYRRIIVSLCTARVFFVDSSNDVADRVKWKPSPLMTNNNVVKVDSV
Description: (§1) The Radioligand binding assays were conducted by the NIMH Psychoactive Drug Screening Program (PDSP). The NIMH PDSP is directed by Bryan L. Roth, MD, PhD, at the University of North Carolina at Chapel Hill, North Carolina, and Program Officer Jamie Driscoll at NIMH, Bethesda, MD. Binding assay procedures and protocols are also available online at http://pdspdb.unc.edu/pdspWeb/?site=assays. […] Assay plates were sealed and incubated for 4 hr at 37°C in a humidified incubator until harvesting. Plates were harvested using vacuum filtration onto 0.3% polyethyleneimine pre-soaked 96-well Filtermat A (PerkinElmer) and washed three times with cold wash buffer (50 mM Tris, pH 7.4). Filters were dried and melted with a scintillation cocktail (Meltilex, PerkinElmer). Radioactivity was counted using a Wallac TriLux Microbeta counter (PerkinElmer). Results were analyzed using GraphPad Prism 7.0.

MT1 [2] = target: T1, MT1; assay: GloSensor Gi/o-mediated cAMP production inhibition assay, MT1; format: cell-based; conditions: for EC50: Gi/o mediated; for MT1 LE: ligand efficiency (based on EC50); for Emax: read-out: MT1 Emax ± SEM
Description: (§2) Briefly, HEK293 T cells (as above) were transiently co-transfected with receptor (MT1 or MT2) and GloSensor cAMP (Promega) plasmids overnight, plated in Poly-L-Lysine coated 384-well white clear bottom plates in DMEM + 1% dialyzed FBS. Cells were used for assays at a minimum of 6 hr after plating. Culture medium was first removed and cells were stimulated with drugs in assay buffer (1x HBSS, 20 mM HEPES, 1 mg/ml BSA, 0.1 mg/ml ascorbic acid, pH 7.4) for 15 min at room temperature (this and all the following steps), followed by addition of a mixture of isoproterenol (final of 100 nM) and luciferin (final of 1 mM) for Gi/o-cAMP production inhibition assays and luciferin (final of 1 mM) for Gs-cAMP production assays. The plates were counted for luminescence after 25 min in a luminescence plate reader. Results were analyzed using GraphPad Prism 7.0.

MT2 [3] = target: T2, MT2 (Homo sapiens, UniProt P49286); assay: [3H]melatonin competition radioligand binding, MT2 membranes; parameters: expressed in transfected cells; host or cells: HEK293T (ATCC CRL-11268), transient transfection; conditions: read-out: MT2 pKi ± SEM (converted)
T2 sequence (P49286 1-362): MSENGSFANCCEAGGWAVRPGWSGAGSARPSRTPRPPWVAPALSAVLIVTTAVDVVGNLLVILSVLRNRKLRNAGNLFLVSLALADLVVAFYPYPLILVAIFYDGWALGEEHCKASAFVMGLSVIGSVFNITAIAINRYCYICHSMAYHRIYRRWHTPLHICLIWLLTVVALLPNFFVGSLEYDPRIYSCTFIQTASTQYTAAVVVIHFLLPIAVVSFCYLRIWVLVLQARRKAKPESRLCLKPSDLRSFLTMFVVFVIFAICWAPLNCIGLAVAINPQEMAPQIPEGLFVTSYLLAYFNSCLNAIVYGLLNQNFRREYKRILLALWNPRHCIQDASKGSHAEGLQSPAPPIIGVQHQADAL
Description: as §1

MT2 [4] = target: T2, MT2; assay: GloSensor Gi/o-mediated cAMP production inhibition assay, MT2; format: cell-based; parameters: expressed in transfected cells; host or cells: HEK293T (ATCC CRL-11268), transient transfection; conditions: for MT2/MT1 Selectivity: Antilog (log(Emax/EC50) MT2 - log (Emax/EC50) MT1), values below 1 = MT1 selectivity; for EC50: Gi/o mediated, read-out: MT2 EC50; for Emax: MT2, activation compared to melatonin, read-out: MT2 Emax ± SEM; for MT2 LE: ligand efficiency (based on EC50)
Description: as §2

MT1 wildtype (WT) = target: T3, MT1 wildtype (WT) (Homo sapiens, UniProt P48039); assay: Tango β-arrestin recruitment assay, MT1 wildtype; format: cell-based
T3 construct: host or cells: HTLA cells (HEKT based)
T3 sequence (P48039 whole entry): as the sequence (P48039 whole entry) above
Description: (§3) In brief, HTLA cells were transiently transfected with receptor TANGO DNA constructs overnight in DMEM with 10% FBS. Transfected cells were then plated into poly-L-Lys coated 384-well plates using DMEM supplemented with 1% dialyzed FBS. After 6 hr incubation, drug dilutions, prepared in DMEM with 1% dFBS, were added for incubation overnight (16–20 hr). Medium and drug solutions were removed, Bright-Glo reagent (20 uL/well) was added for luminescence counting 20 min later. Results were analyzed in GraphPad Prism 7.0.

[5] = target: T4, MT1 N162Q mutant receptor (Homo sapiens, UniProt P48039, N162Q); assay: Tango β-arrestin recruitment assay, MT1 N162Q mutant; format: cell-based
T4 construct: expressed in transfected cells; host or cells: HTLA cells (HEKT based)
T4 sequence (P48039 whole entry N162Q): as the sequence (P48039 whole entry) above, with N162Q counted along it
Description: as §3

[6] = target: T5, MT1 Y281F mutant receptor (Homo sapiens, UniProt P48039, Y281F); assay: Tango β-arrestin recruitment assay, MT1 Y281F mutant; format: cell-based; conditions: normalized individually (basal 0%, maximum 100%); mean ± SEM, minimum of 3 assays; read-out: pEC50, Tango, MT1 Y281F (converted)
T5 construct: expressed in transfected cells; host or cells: HTLA cells (HEKT based)
T5 sequence (P48039 whole entry Y281F): as the sequence (P48039 whole entry) above, with Y281F counted along it
Description: as §3

[7] = tested on: panel of 47 common drug targets (GPCRs, ion-channels and transporters); assay: Binding profiling at a panel of 47 common drug targets; conditions: final concentration of 10 μM
Description: as §1, with “http://pdspdb.unc.edu/pdspWeb/?site=assays. All the radioligand binding assays were performed using membranes prepared from transiently transfected HEK293T cells (purchased from ATCC, CRL-11268, authenticated by the supplier using morphology, growth characteristics, and STR profiling and certified mycoplasma-free) and in standard binding buffer (50 mM Tris, 10 mM MgCl2, 0.1 mM EDTA, 0.1% BSA, 0.01% ascorbic acid, pH 7.4) as recently reported ([Stauch et al., 2019]).” for “http://pdspdb.unc.edu/pdspWeb/?site=assays.”

[8] = SEM, N = 3, read-out: MT1 pEC50 ± SEM (converted)

Ki (MT1 [1]) | EC50 (MT1 [2]; read-out: MT1 EC50) | MT1 LE (MT1 [2]) | Emax (MT1 [2]) | Ki (MT2 [3]) | MT2/MT1 Selectivity (MT2 [4]) | EC50 (MT2 [4]) | Emax (MT2 [4]) | MT2 LE (MT2 [4]) | EC50 (MT1 [2]; text value, read-out: MT1 EC50) | EC50 (MT1 [2]; [8]) | EC50 (MT1 wildtype (WT); normalized individually (basal 0%, maximum 100%), mean ± SEM, minimum of 3 assays, read-out: pEC50, Tango, MT1 WT (converted)) | β-arrestin activity at MT1 (MT1 wildtype (WT); result in words) | increase of potency, MT1 N162Q versus WT ([5]; Tango) | EC50 ([5]; normalized individually (basal 0%, maximum 100%), mean ± SEM, minimum of 3 assays, read-out: pEC50, Tango, MT1 N162Q (converted)) | EC50 [6] | binding at panel of 47 common drug targets [7] | Compound | G-protein (Gi) signaling at MT1 (MT1 [2]; result in words)
28800 nM | 8710 nM | 0.44 kcal/mol per non-hydrogen atom | 90.6 ± 14.3% | 5500 nM | 17 fold and 16.9 fold | 427 nM | 75 ± 7.4% | 0.56 kcal/mol per non-hydrogen atom | – | – | – | – | – | – | – | – | CC(=O)c1sc2nc3c(cc2c1N)CCC3 [Compound 45] | –
26300 nM | 2340 nM | 0.46 kcal/mol per non-hydrogen atom | 112 ± 5.2% | 1230 nM | 187 fold and 186.9 fold | 10 nM and 10.2 nM | 91.7 ± 3% | 0.66 kcal/mol per non-hydrogen atom | 2340 nM | – | – | – | – | – | – | – | NC(=O)c1cc(C(=O)c2ccccc2Cl)c[nH]1 [Compound 47] | –
6030 nM | 144 nM | 0.53 kcal/mol per non-hydrogen atom | 87.5 ± 4.5% | 2450 nM | 3.3 fold | 34.7 nM | < 70% | 0.58 kcal/mol per non-hydrogen atom | – | 148 nM | – | – | – | – | – | – | CC(=O)NCC1CCCCN1c1ccnc(C)n1 (stereo not drawn) [Compound 29, N-{[1-(2-methylpyrimidin-4-yl)piperidin-2-yl]methyl}acetamide] | –
– | – | – | 100 ± 5.6% | – | – | – | – | – | – | – | – | – | – | – | – | – | COc1ccc2[nH]cc(CCNC(C)=O)c2c1 [Melatonin, N-acetyl-5-methoxytryptamine, reference compound] | –
3800 nM | 57.5 nM | 0.56 kcal/mol per non-hydrogen atom | 96.9 ± 5.3% | 2750 nM | 2.7 fold | 20.4 nM | 91.7 ± 3% | 0.60 kcal/mol per non-hydrogen atom | – | 69.2 nM | – | – | – | – | – | – | COc1cccc([C@@H]2C[C@H]2CNC(=O)C(N)=O)c1 (racemic) [Compound 23, rac-N'-{[(1R,2R)-2-(3-methoxyphenyl)cyclopropyl]methyl}ethanediamide] | –
8510 nM | > 30000 nM | – | – | 3550 nM | >1000.0 fold | 141 nM | 61.1 ± 9.1% | 0.53 kcal/mol per non-hydrogen atom | – | – | 4170 nM | substantial β-arrestin activity | 2 fold | 2240 nM | 11700 nM | did not show any substantial binding | COc1cccc(CNc2nc(C3CC3)no2)c1 [Compound 37, 3-cyclopropyl-N-[(3-methoxyphenyl)methyl]-1,2,4-oxadiazol-5-amine] | devoid of Gi signaling; also recorded: completely lacks G-protein signaling
64600 nM | 57500 nM | 0.33 kcal/mol per non-hydrogen atom | 72.8 ± 4.7% | 11200 nM | 267 fold and 267.2 fold | 263 nM | 88.9 ± 6.3% | 0.51 kcal/mol per non-hydrogen atom | – | – | – | – | – | – | – | – | COc1cccc(Cn2c(N)cc(=O)[nH]c2=O)c1 [Compound 44, 6-amino-1-[(3-methoxyphenyl)methyl]-1,2,3,4-tetrahydropyrimidine-2,4-dione] | –
9330 nM | 741 nM | 0.54 kcal/mol per non-hydrogen atom | 82.8 ± 4.3% | 2750 nM | 36.9 fold | 18.2 nM | 75 ± 3.7% | 0.68 kcal/mol per non-hydrogen atom | – | 871 nM | – | – | – | – | – | – | COC(=O)c1[nH]c2cc(OC)ccc2c1N [Compound 54] | –
14500 nM | 1780 nM | 0.47 kcal/mol per non-hydrogen atom | 87.5 ± 9.1% | 4270 nM | 10.3 fold | 132 nM | < 70% | 0.57 kcal/mol per non-hydrogen atom | – | 1910 nM | – | – | – | – | – | – | COc1cccc(CNC(=O)c2ccno2)c1 [Compound 57, N-[(3-methoxyphenyl)methyl]-1,2-oxazole-5-carboxamide] | –
47900 nM | 42700 nM | 0.36 kcal/mol per non-hydrogen atom | 54.1 ± 10% | 3240 nM | 875.9 fold | 52.5 nM | < 70% | 0.60 kcal/mol per non-hydrogen atom | – | 40700 nM | – | – | – | – | – | – | Nc1cc(=O)[nH]c(=S)n1CCc1ccccc1 [Compound 62] | –
